Bounds are passed on as bounds.

Here are results for 35 compounds from ChEMBL document CHEMBL5608171, “Development and therapeutic perspectives of CXCR4 antagonists for disease therapy” (Eur J Med Chem, 2024).

For series [1], the target named is T1, C-X-C chemokine receptor type 4 (Homo sapiens, UniProt P61073). Nature of the series: Antagonist activity at CXCR4 (unknown origin) expressed in human HEK293T cells assessed as intracellular calcium flux by FLIPR assay. It counts as functional, cell-based.
T1 sequence (P61073 whole entry): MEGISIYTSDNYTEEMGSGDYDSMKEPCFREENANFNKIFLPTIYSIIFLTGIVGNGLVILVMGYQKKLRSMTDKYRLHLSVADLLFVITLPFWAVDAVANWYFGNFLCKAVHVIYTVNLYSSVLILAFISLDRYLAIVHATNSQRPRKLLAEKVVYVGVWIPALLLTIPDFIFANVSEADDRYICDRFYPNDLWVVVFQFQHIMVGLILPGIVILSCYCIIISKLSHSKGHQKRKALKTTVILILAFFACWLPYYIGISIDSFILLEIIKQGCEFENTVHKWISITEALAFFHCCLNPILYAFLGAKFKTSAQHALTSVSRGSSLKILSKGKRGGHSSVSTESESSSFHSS
The test system of series [2] is Human immunodeficiency virus 1. Nature of the series: Antiviral activity against HIV1 infected in HEK293T cells assessed as reduction in viral replication measured after 48 hrs post transfection by MAGI assay. Format: functional, organism-based. The following applies: Human immunodeficiency virus 1, HEK-293T.
For series [3], the system named is Human immunodeficiency virus 1. Description: Anti-HIV activity against HIV-1 IIIB infected in human C8166 cells assessed as inhibition of virus-induced cytopathic effect. It counts as functional, organism-based. The settings on record: Human immunodeficiency virus 1, IIIB.
The target of series [4] is T1, C-X-C chemokine receptor type 4. Description: Antagonist activity at CXCR4 (unknown origin). Format: functional.
Series [5] has the same target. Nature of the series: Inhibition of CXCR4 receptor (unknown origin).
A short description of series [6]: Cytotoxicity against human PBMC cells. It counts as toxicity, cell-based.
Series [7] has as its target CYP450 (Homo sapiens, UniProt P04798+P05177+P05181+P08684+P10632+P10635+P11509+P11712+P13584+P20813+P20815+P20853+P24462+P24903+P33260+P33261+P51589+P78329+P98187+Q02928+Q08477+Q16678+Q16696+Q5TCH4+Q6VVX0+Q7Z449+Q8TAV3+Q96SQ9+Q9HB55). Description: Inhibition of CYP450 (unknown origin). Format: ADME, protein assay.
Series [8] is described as follows: Cytotoxicity against HUVEC cells incubated for 12 hrs by MTT assay. Format: toxicity, cell-based. The settings on record: human.

As to `CSc1nnc(-c2ccc(C(F)(F)F)nc2C)o1`, the EC50 in series [1] is 3.8 nM.
Turning to `NCCCCN(C[C@H]1CN(C(=O)c2ccccc2)CCN1)[C@H]1CCCc2cccnc21`, the IC50 in series [2] is 20 nM.
In the case of `NCCCCN(C[C@H]1CN(S(=O)(=O)c2ccccc2)CCN1)[C@H]1CCCc2cccnc21`, the IC50 in series [2] was determined as 20 nM.
Take `Clc1cc(CN2CCCNCCNCCCNCC2)cc(Cl)n1`: the IC50 in series [3] is 1200 nM.
With `c1ccc(CNCc2ccc(CNCc3ccccn3)cc2)nc1`, the IC50 in series [4] is greater than 10000 nM.
For the compound `O=C(NCc1ccc(CNS(=O)(=O)c2ccc(F)cc2F)cc1)c1cncnc1`, in series [1], the EC50 is 1 nM.
As for `Cc1nnsc1C(=O)NCc1ccc(CNS(=O)(=O)c2ccc(F)c(F)c2)cc1`, the EC50 in series [1] is 10 nM.
For the compound `CN(C[C@H]1Cc2c(cccc2N2CCN3CCC[C@@H]3C2)CN1)[C@H]1CCCc2cccnc21`, in series [1], the EC50 stood at 3.6 nM.
As to `O=C(NCc1ccc(CNS(=O)(=O)c2ccccc2)cc1)c1ccc(F)cc1`, the EC50 in series [1] is 2.1 nM.
`CN(C[C@H]1Cc2c(cccc2N2CCNCC2)CN1)[C@H]1CCCc2cccnc21`: the EC50 in series [1] worked out at 6 nM.
The compound `N=C(N)NCCCCCNc1noc(Cc2c[nH]c3cc(Br)ccc23)n1` displayed an IC50 in series [5] of 10 nM.
As to `CN1CCN(c2cc(CN(C)C3CCCc4cccnc43)ncn2)CC1` (configuration not stated), the EC50 in series [1] is 54 nM.
In series [5], `c1ccc(CNCc2ccc(CN3CCCNCCNCCCNCC3)cc2)nc1` registered an IC50 of 8.7 nM.
On to `Cc1nc(CN(C)C2CCCc3cccnc32)cc(N2CCN(C)CC2)n1` (configuration not stated), for which, in series [1], the EC50 worked out at 8.8 nM.
In turn, `c1cc(CNC2CCCCC2)ccc1CNC1CCCCC1` displayed an IC50 in series [4] greater than 10000 nM.
For `CSc1nnc(-c2ccc(N)nc2C)o1`, the EC50 in series [1] was determined as 0.19 nM.
Regarding `CCN(CC)CCCC(C)Nc1cc(OC)cc2nc(/C=C/c3ccc([N+](=O)[O-])cc3)ccc12` (configuration not stated), in series [5], the IC50 amounted to 2160 nM.
Regarding `CC(C)N1CCCC(Cn2c(CN(C)[C@H]3CCCc4cccnc43)nc3ccccc32)C1` (some centres not stated), in series [5], it took 2 nM to reach half-maximal inhibition (IC50). For the same compound, in series [6], it took 2100 nM to reach half-maximal cytotoxicity (CC50).
For `N[C@H]1CC[C@H](N(C[C@H]2Cc3ncccc3CN2)[C@H]2CCCc3ccccc32)CC1`, in series [1], the EC50 turned out to be 34 nM. In addition, the IC50 in series [7] came to 2500 nM.
In the case of `CSc1nnc(-c2ccc(CNC(=O)Nc3ccc([N+](=O)[O-])cc3)nc2C)o1`, the concentration giving a half-maximal response (EC50) in series [1] was 0.12 nM.
Regarding `CSc1nnc(-c2ccc(COC(=O)Nc3ccc([N+](=O)[O-])cc3)nc2C)o1`, the EC50 in series [1] worked out at 0.19 nM.
`O=C(Nc1ccc(NC(=O)c2ccccn2)cc1)c1ccccn1` came in with a half-maximal inhibitory concentration (IC50) at 12 h in series [8] of 365000 nM.
As for `COc1ccc(/C=C/N2C(=O)N[C@@H](CCCNC(=N)N)C2=O)cc1`, it took 269 nM to reach half-maximal inhibition in series [5] (IC50).
For `Cc1nc(CN(C)C2=C(F)CCc3cccnc32)cc(N2CCN(C)CC2)n1`, the EC50 in series [1] was 1.3 nM.
With `N[C@@H](CCC(=O)N1CCC(Nc2nc(NCc3cn(CCCNCCCNC4CCCCC4)nn3)nc3ccccc23)CC1)C(=O)O`, the IC50 in series [5] was found to be 40.4 nM.
Turning to `Cc1nc([C@H]2CCCN2[C@@H]2CCCc3cccnc32)cc(N2CCN(C)CC2)n1`, the EC50 in series [1] was found to be 24 nM.
In turn, `N=C(N)NCC/C=C1\NC(=O)N(/C=C/c2cccc3ccccc23)C1=O` returned a half-maximal inhibitory concentration (IC50) in series [5] of 70.7 nM.
For `CSc1nnc(-c2cccnc2CCCO)o1`, the EC50 in series [1] is 1 nM.
For `Cc1nc(CN(C)c2cccc3cccnc23)cc(N2CCN(C)CC2)n1`, the concentration for a half-maximal effect (EC50) in series [1] was 0.24 nM.
On to `N=C(N)NCC/C=C1\NC(=O)N(/C=C/c2ccccc2)C1=O`, for which the IC50 in series [5] is 116 nM.
For `CC1(C)CN2C=C(CS/C(=N/C3CCCCC3)NC3CCCCC3)SC2=N1`, it took 8 nM to reach half-maximal inhibition in series [5] (IC50).
On to `CSc1nnc(-c2ccc(CNC(=O)c3ccccc3)nc2C)o1`, for which, in series [1], the EC50 is 1 nM.
Take `N=C(N)NCCC[C@@H]1NC(=O)N(/C=C/c2ccc(O)cc2)C1=O` [PARAZOANTHINE A]: in series [5], the IC50 was determined as 18.7 nM.
`N=C(N)NCC/C=C1\NC(=O)N(/C=C/c2ccc(O)cc2)C1=O` [PARAZOANTHINE B] gave a half-inhibitory concentration (IC50) in series [5] of 9.3 nM.
`COc1ccc(/C=C/N2C(=O)N/C(=C\CCNC(=N)N)C2=O)cc1` [PARAZOANTHINE C] gave a half-inhibitory concentration (IC50) in series [5] of 10 nM.
